Measured values as given in PubChem BioAssay AID206 (DTP/NCI, 2004).
Several values for one entry are separate records, joined by “and”; a condition that tells them apart may be missing. Equal values may be shown once. Records with an inconclusive call do not appear.

Tested on: nude mice, HT29 intrarenal xenograft, tumor weight T/C
Experiment: NCI In Vivo Anticancer Drug Screen. Data for tumor model HT29;CX-1 Human Adenocarcinoma (MER+) (intrarenal inoculation) in NU/NU Swiss (nude) mice
Conditions: endpoint: mean tumor weight change, higher = larger tumour
Method in brief: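 Tumor-bearing mice received test compound or vehicle, and tumor size or survival was recorded. Values are the treated-group measurement divided by the vehicle-treated control measurement.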

[1] = dose: 200.0 mg/kg/injection, schedule: Q04DX004 (sc), vehicle: saline
[2] = dose: 200.0 mg/kg/injection, schedule: Q01DX010 (sc), vehicle: saline with Tween-80
[3] = dose: 300.0 mg/kg/injection, schedule: Q04DX004 (sc), vehicle: saline
[4] = dose: 75.0 mg/kg/injection, schedule: Q04DX004 (sc), vehicle: saline with Tween-80
[5] = dose: 150.0 mg/kg/injection, schedule: Q04DX004 (sc), vehicle: saline with Tween-80
[6] = dose: 300.0 mg/kg/injection, schedule: Q04DX004 (sc), vehicle: saline with Tween-80
[7] = dose: 600.0 mg/kg/injection, schedule: Q04DX004 (sc), vehicle: saline with Tween-80
[8] = dose: 1200.0 mg/kg/injection, schedule: Q04DX004 (sc), vehicle: saline with Tween-80

With `CN(C)[C@@H]1C(=O)C(C(N)=O)=C(O)[C@@]2(O)C(=O)C3=C(O)c4c(O)ccc(Cl)c4[C@@](C)(O)[C@H]3C[C@@H]12` the T/C [1] was 62 % of control, the T/C (dose: 400.0 mg/kg/injection, schedule: Q04DX004 (sc), vehicle: saline) was 87 % of control and the T/C (dose: 800.0 mg/kg/injection, schedule: Q04DX004 (sc), vehicle: saline) was 82 % of control. For the same compound, the T/C (dose: 1600.0 mg/kg/injection, schedule: Q04DX004 (sc), vehicle: saline) was 66 % of control.

`O=C(N/N=C\c1cc(Br)cc(Br)c1O)N/N=C/c1cc(Br)cc(Br)c1O` was tested, and the T/C [2] was 71 % of control and 94 % of control, the T/C (dose: 400.0 mg/kg/injection, schedule: Q01DX010 (sc), vehicle: saline with Tween-80) was 43 % of control and 56 % of control and the T/C (dose: 800.0 mg/kg/injection, schedule: Q01DX010 (sc), vehicle: saline with Tween-80) was 76 % of control.

For `C1CC[N-]CC1.C1CC[N-]CC1.C1CC[N-]CC1.[Cl][Rh]([Cl])[Cl]`, the T/C (dose: 150.0 mg/kg/injection, schedule: Q04DX004 (sc), vehicle: saline) was 36 % of control and the T/C [3] was 25 % of control.

With `CCN(CC)CC[n+]1ccc2c(C)c3[nH]c4ccc(O)cc4c3c(C)c2c1` the T/C (dose: 12.5 mg/kg/injection, schedule: Q04DX004 (sc), vehicle: suspension in saline) was 56 % of control and the T/C (dose: 25.0 mg/kg/injection, schedule: Q04DX004 (sc), vehicle: suspension in saline) was 24 % of control.

In the case of `COc1cc2cc3c4cc(OC)c(OC)cc4cc[n+]3c(C)c2cc1OC` (tested in a mixture with another compound), the T/C (dose: 50.0 mg/kg/injection, schedule: Q01DX010 (sc), vehicle: saline) is reported as 76 % of control and the T/C (dose: 100.0 mg/kg/injection, schedule: Q01DX010 (sc), vehicle: saline) is reported as 68 % of control.

`CC1(c2ccc(Cl)cc2)OC(=O)C(=Cc2ccc([N+](=O)[O-])s2)C(=O)O1` (stereo not drawn) was tested, and the T/C (dose: 50.0 mg/kg/injection, schedule: Q04DX004 (sc), vehicle: saline with Tween-80) was 34 % of control, the T/C (dose: 100.0 mg/kg/injection, schedule: Q04DX004 (sc), vehicle: saline with Tween-80) was 53 % of control and the T/C (dose: 200.0 mg/kg/injection, schedule: Q04DX004 (sc), vehicle: saline with Tween-80) was 77 % of control. For the same compound, the T/C (dose: 400.0 mg/kg/injection, schedule: Q04DX004 (sc), vehicle: saline with Tween-80) was 60 % of control.

`CCCCCc1cc(/C=C2/N=C(c3ccc[nH]3)C=C2OC)[nH]c1C` was tested, and the T/C (dose: 4.0 mg/kg/injection, schedule: Q04DX004 (sc), vehicle: saline with Tween-80) was 81 % of control, the T/C (dose: 8.0 mg/kg/injection, schedule: Q04DX004 (sc), vehicle: saline with Tween-80) was 68 % of control and the T/C (dose: 16.0 mg/kg/injection, schedule: Q04DX004 (sc), vehicle: saline with Tween-80) was 55 % of control and 72 % of control. For the same compound, the T/C (dose: 32.0 mg/kg/injection, schedule: Q04DX004 (sc), vehicle: saline with Tween-80) was 76 % of control.

`Cc1cc(Nc2ccc3c(c2)OCO3)c2cc3c(cc2n1)OCO3` was tested, and the T/C (dose: 300.0 mg/kg/injection, schedule: Q04DX004 (sc), vehicle: Klucel (hydroxypropylcellulose) (HPC)) was 79 % of control and the T/C (dose: 600.0 mg/kg/injection, schedule: Q04DX004 (sc), vehicle: Klucel (hydroxypropylcellulose) (HPC)) was 198 % of control.

`O=C1N(Cl)C(=O)C(c2ccc(Cl)cc2)(c2ccc(Cl)cc2)N1Cl` was tested, and the T/C (dose: 100.0 mg/kg/injection, schedule: Q01DX010 (sc), vehicle: saline with Tween-80) was 105 % of control and the T/C [2] was 83 % of control.

For `CN(C)P(=O)(Oc1ccccc1)N(C)C`, the T/C [4] was 183 % of control, the T/C [5] was 122 % of control and the T/C [6] was 62 % of control. For the same compound, the T/C [7] was 40 % of control.

With `OCC1(CO)COC2(CCCCC2)N1` the T/C (dose: 600.0 mg/kg/injection, schedule: Q04DX004 (sc), vehicle: suspension in saline) was 115 % of control, the T/C (dose: 1200.0 mg/kg/injection, schedule: Q04DX004 (sc), vehicle: suspension in saline) was 56 % of control and the T/C (dose: 2400.0 mg/kg/injection, schedule: Q04DX004 (sc), vehicle: suspension in saline) was 109 % of control.

With `CSC1SCC2C(=O)N(C)C(C(C)C)C(=O)OCC(NC(=O)c3cnc4ccccc4n3)C(=O)NC(C)C(=O)N(C)C1C(=O)N(C)C(C(C)C)C(=O)OCC(NC(=O)c1cnc3ccccc3n1)C(=O)NC(C)C(=O)N2C` (stereo not drawn) the T/C (dose: 30.0 micrograms/kg/injection, schedule: Q01DX010 (sc), vehicle: suspension in saline) was 88 % of control, the T/C (dose: 60.0 micrograms/kg/injection, schedule: Q01DX010 (sc), vehicle: saline) was 49 % of control and the T/C (dose: 120.0 micrograms/kg/injection, schedule: Q01DX010 (sc), vehicle: saline) was 35 % of control. For the same compound, the T/C (dose: 240.0 micrograms/kg/injection, schedule: Q01DX010 (sc), vehicle: saline) was 12 % of control.

For `CC(C)NCC(O)COc1ccc(O)c(O)c1` (stereo not drawn), the T/C (dose: 3.0 mg/kg/injection, schedule: Q04DX004 (sc), vehicle: saline) was 107 % of control, the T/C (dose: 6.0 mg/kg/injection, schedule: Q04DX004 (sc), vehicle: saline) was 103 % of control and the T/C (dose: 12.0 mg/kg/injection, schedule: Q04DX004 (sc), vehicle: saline) was 164 % of control.

For `CCOC(=O)Nc1cc2c(c(N)n1)N=C(c1ccc(Cl)cc1Cl)CN2`, the T/C (dose: 37.5 mg/kg/injection, schedule: Q04DX004 (sc), vehicle: saline with Tween-80) was 92 % of control, the T/C [4] was 150 % of control and the T/C [5] was 78 % of control. The T/C [6] was 83 % of control.

`O=c1[nH]cnc2c1ccn2C1OC(CO)C(O)C1O` (stereo not drawn) was tested, and the T/C (dose: 5.0 mg/kg/injection, schedule: Q04DX004 (sc), vehicle: saline) was 48 % of control, the T/C (dose: 10.0 mg/kg/injection, schedule: Q04DX004 (sc), vehicle: saline) was 61 % of control and the T/C (dose: 20.0 mg/kg/injection, schedule: Q04DX004 (sc), vehicle: saline) was 69 % of control. For the same compound, the T/C (dose: 40.0 mg/kg/injection, schedule: Q04DX004 (sc), vehicle: saline) was 97 % of control.

In the case of `Nc1cccc(=O)[nH]1`, the T/C [3] is reported as 115 % of control, the T/C (dose: 600.0 mg/kg/injection, schedule: Q04DX004 (sc), vehicle: saline) is reported as 96 % of control and the T/C (dose: 1200.0 mg/kg/injection, schedule: Q04DX004 (sc), vehicle: saline) is reported as 87 % of control. The T/C (dose: 2400.0 mg/kg/injection, schedule: Q04DX004 (sc), vehicle: saline) was 79 % of control.

With `Cc1c(N)nc(C(CC(N)=O)NCC(N)C(N)=O)nc1C(=O)NC(C(=O)NC(C)C(O)C(C)C(=O)NC(C(=O)NCCc1nc(-c2nc(C(=O)NCCCNCCCc3ccccn3)cs2)cs1)C(C)O)C(OC1OC(CO)C(O)C(O)C1OC1OC(CO)C(O)C(OC(N)=O)C1O)c1cnc[nH]1` (stereo not drawn) the T/C (dose: 9.0 mg/kg/injection, schedule: Q04DX004 (sc), vehicle: water) was 164 % of control, the T/C (dose: 18.0 mg/kg/injection, schedule: Q04DX004 (sc), vehicle: water) was 120 % of control and the T/C (dose: 36.0 mg/kg/injection, schedule: Q04DX004 (sc), vehicle: water) was 90 % of control.

In the case of `NC1=NC(=O)N2CC12` (stereo not drawn), the T/C (dose: 50.0 mg/kg/injection, schedule: Q04DX004 (sc), vehicle: saline) is reported as 103 % of control, the T/C (dose: 100.0 mg/kg/injection, schedule: Q04DX004 (sc), vehicle: saline) is reported as 85 % of control and the T/C [1] is reported as 79 % of control.

`C[n+]1c2cc(N)ccc2cc2ccc(N)cc21` was tested, and the T/C (dose: 1.56 mg/kg/injection, schedule: Q01DX010 (sc), vehicle: saline) was 72 % of control, the T/C (dose: 3.13 mg/kg/injection, schedule: Q01DX010 (sc), vehicle: saline) was 49 % of control and the T/C (dose: 6.25 mg/kg/injection, schedule: Q01DX010 (sc), vehicle: saline) was 88 % of control.

`NC(=S)N/N=C/c1ccc(OC(=O)COc2ccccc2)cn1` was tested, and the T/C [5] was 102 % of control, the T/C [6] was 94 % of control and the T/C [7] was 155 % of control. For the same compound, the T/C [8] was 38 % of control.

With `COC(=O)C[C@](O)(CCCC(C)(C)O)C(=O)O[C@@H]1C(OC)=C[C@]23CCCN2CCc2cc4c(cc2[C@H]13)OCO4` the T/C (dose: 0.5 mg/kg/injection, schedule: Q01DX010 (sc), vehicle: saline) was 41 % of control.

In the case of `COc1cccc(C2NC(=O)c3c(n[nH]c3N)S2)c1O` (stereo not drawn), the T/C [8] is reported as 53 % of control and the T/C (dose: 2400.0 mg/kg/injection, schedule: Q04DX004 (sc), vehicle: saline with Tween-80) is reported as 117 % of control.

With `O=C1CN(Cc2ccc3c(c2)OCO3)NO1` the T/C [5] was 92 % of control and the T/C [6] was 103 % of control.

With `Nc1ncnc2c1ncn2C1C=C(CO)C(O)C1O` (stereo not drawn) the T/C (dose: 3.75 mg/kg/injection, schedule: Q04DX004 (sc), vehicle: saline) was 76 % of control, the T/C (dose: 7.5 mg/kg/injection, schedule: Q04DX004 (sc), vehicle: saline) was 103 % of control and the T/C (dose: 15.0 mg/kg/injection, schedule: Q04DX004 (sc), vehicle: saline) was 81 % of control.

For `CC(=S)NC(O)C(=O)c1ccccc1` (stereo not drawn), the T/C [6] was 116 % of control.
